Assay results from publication PMC5126668 (PeerJ, 2016).
“And” between values parts separate entries of the source, which are not always exact repeats. Equal entries are not always repeated. Where two headings read alike, the source gives them in different places.

Key:
[1] = HK-2 cell viability, MTT assay, with or without co-cultured HLMs; format: cell-based, human; conditions: human; for viability at 4 h, 30 µM: BAK 30 µM; for viability at 4 h, 75 µM: BAK 75 µM; for viability at 4 h, 90 µM: BAK 90 µM; for viability at 4 h, 45 µM: BAK 45 µM; for viability at 4 h, 60 µM: BAK 60 µM
Description: HK-2 cells obtained from Peking Union Medical College were maintained in D/F12 medium containing 10% fetal bovine serum, 2 mM glutamine and 1 × 10^5 U/L penicillin and streptomycin at 37 °C in a 5% CO2 atmosphere. […] The samples containing HLMs were prepared in an ice bath, and three replicates were tested for each dose. In brief, HK-2 cells (100 µL) were seeded at 3 × 10^5cells/mL in 96-well plates. After 12 h, 200 µL of the test compound was added. For the BAK and GA with HLMs group, GA was pre-incubated with NADPH in HLMs for 30 min at 37 °C and then mixed with BAK; for the other groups, all tested compounds except NADPH were mixed, and NADPH was then added to start the metabolic reaction. After 4 h of culture, 100 µL of 0.5 g/L MTT was added, and the cells were cultured for 4 h. Subsequently, 150 µL of 4% isopropanol was added to cells for 15 min at 37 °C, and the absorbance at 570 nm was then read by a microplate reader (Multiskan MK3, Thermo, USA). The relative cell viability (%) was calculated as follows: Mean Absorbance of Sample/Mean Absorbance of Vehicle Control × 100%.

[2] = Toxicokinetics of BAK in rat plasma after a single oral dose; format: in vivo, Sprague–Dawley rats
Description: ABT, a broad-spectrum nonspecific CYP inhibitor, was selected as a positive control inhibitor of CYP enzymes. Aristolochic acid A (AA I) was selected as the nephrotoxicity positive control in the study.
The plasma samples were separated by centrifugation at 4000 rpm for 15 min. […] Subsequently, 10 µL of internal standard solution (tanshinone II A, 10 µg/mL) and 0.3 mL of acetonitrile were added to 0.1 mL of plasma or homogenates, and centrifuged at 13,300 rpm for 15 min after 2 min of vortexing. The supernatant was reconstituted in 100 µL of mobile phase after drying under 40 °C nitrogen, the mixture then was vortexed for 5 min and centrifuged at 13,300 rpm for 15 min. Finally, 20 µL of supernatant was injected for HPLC analysis.
The mobile phase consisted of methanol and water with 0.1% formic acid (89:11, v/v) and was supplied at a flow rate of 0.8 mL/min. The detection wavelength was set to 262 nm.

[3] = with HLM, raw data, read-out: cell viability(%), single values
[4] = HK-2 cells co-cultured with HLMs (0.16 g/L), with HLMs 0.16 g/L, 4 h, mean, read-out: HK-2 Cell viability (%)
[5] = HK-2 cells, without HLMs, without HLMs, 4 h, mean, read-out: HK-2 Cell viability (%)
[6] = Sprague-Dawley, plasma, rat, single oral, BAK 200 mg/kg, with ABT or GA 100 mg/kg where named
[7] = rat, single oral, BAK 200 mg/kg, with ABT or GA 100 mg/kg where named

Work on C=C[C@@](C)(/C=C/c1ccc(O)cc1)CCC=C(C)C [BAK, Bakuchiol] yielded a viability at 4 h, 30 µM [1, 3] of 98.8%, a viability at 4 h, 75 µM [1, 3] of 108% and a viability at 4 h, 90 µM [1, 3] of 88.2%. It also gave a viability at 4 h, 30 µM [1, 4] of 104 ± 4.32%, a viability at 4 h, 45 µM ([1]; HK-2 cells co-cultured with HLMs (0.16 g/L), with HLMs 0.16 g/L, 4 h, mean) of 105 ± 9.39% and a viability at 4 h, 60 µM [1, 4] of 101 ± 9.76%. It also gave a viability at 4 h, 75 µM [1, 4] of 109 ± 3.19%, a viability at 4 h, 90 µM [1, 4] of 92.5 ± 2.07% and a viability at 4 h, 60 µM ([1]; HK-2 cells, without HLM, raw data, read-out: cell viability(%), single values) of 80.5%. For the same molecule, the viability at 4 h, 30 µM [1, 5] was 97.7 ± 10.7%, the viability at 4 h, 45 µM ([1]; HK-2 cells, without HLMs, 4 h, mean) was 84.6 ± 13.8% and the viability at 4 h, 60 µM [1, 5] was 77.5 ± 4.69%. The viability at 4 h, 75 µM [1, 5] was 55 ± 11.3%, the viability at 4 h, 90 µM [1, 5] was 46.3 ± 12.5% and the “BAK concentration in rat plasma, single rats 1-5” value (“BAK concentration in rat plasma” below) ([2]; 0.083 h after single oral dose) was 19.440 ng/mL and 20.126 ng/mL and 124.551 ng/mL and 203.437 ng/mL and 45.002 ng/mL. For the same molecule, the “BAK concentration in rat plasma” value ([2]; 0.500 h after single oral dose) was 298.348 ng/mL and 315.739 ng/mL and 248.132 ng/mL and 249.198 ng/mL, the “BAK concentration in rat plasma” value ([2]; 1.000 h after single oral dose) was 370.910 ng/mL and 622.012 ng/mL and 388.077 ng/mL and 359.422 ng/mL and 237.838 ng/mL and the “BAK concentration in rat plasma” value ([2]; 2.000 h after single oral dose) was 741.835 ng/mL and 1388.336 ng/mL and 509.873 ng/mL and 610.667 ng/mL and 641.059 ng/mL. The “BAK concentration in rat plasma” value ([2]; 4.000 h after single oral dose) was 1167.913 ng/mL and 614.550 ng/mL and 628.766 ng/mL and 924.718 ng/mL, the “BAK concentration in rat plasma” value ([2]; 8.000 h after single oral dose) was 297.448 ng/mL and 580.240 ng/mL and 453.584 ng/mL and 180.567 ng/mL and 336.676 ng/mL and the “BAK concentration in rat plasma” value ([2]; 12.00 h after single oral dose) was 101.667 ng/mL and 221.273 ng/mL and 140.087 ng/mL and 93.481 ng/mL and 214.562 ng/mL. For the same molecule, the “BAK concentration in rat plasma” value ([2]; 24.00 h after single oral dose) was 76.407 ng/mL and 58.961 ng/mL and 54.579 ng/mL and 73.723 ng/mL, the Cmax [2, 6] was 887 ± 281 ng/mL and the MRT [2, 6] was 6.79 ± 0.43 h. It also gave a Tmax [2, 6] of 3.6 ± 0.89 h, an AUC(0-t) ([2]; Sprague-Dawley, plasma, rat, single oral, BAK 200 mg/kg, with ABT or GA 100 mg/kg where named, read-out: AUC0−24 of BAK) of 7260 ng·h/mL and a concentration at 0.083 h ([2]; Sprague-Dawley, rat, plasma, po, 200 mg/kg, 0.083 h after single oral dose) of 82.5 ng/mL. For the same molecule, the concentration at 0.5 h ([2]; Sprague-Dawley, rat, plasma, po, 200 mg/kg, 0.500 h after single oral dose, read-out: BAK concentration in rat plasma, mean) was 273 ng/mL, the concentration at 0.5 h ([2]; Sprague-Dawley, rat, plasma, po, 200 mg/kg, 0.500 h after single oral dose, read-out: BAK concentration in rat plasma, single rats 1-5) was 256 ng/mL and the concentration at 1 h ([2]; Sprague-Dawley, rat, plasma, po, 200 mg/kg, 1.000 h after single oral dose) was 396 ng/mL. The concentration at 2 h ([2]; Sprague-Dawley, rat, plasma, po, 200 mg/kg, 2.000 h after single oral dose) was 778 ng/mL, the concentration at 4 h ([2]; Sprague-Dawley, rat, plasma, po, 200 mg/kg, 4.000 h after single oral dose, read-out: BAK concentration in rat plasma, mean) was 843 ng/mL and the concentration at 4 h ([2]; Sprague-Dawley, rat, plasma, po, 200 mg/kg, 4.000 h after single oral dose, read-out: BAK concentration in rat plasma, single rats 1-5) was 881 ng/mL. For the same molecule, the concentration at 8 h ([2]; Sprague-Dawley, rat, plasma, po, 200 mg/kg, 8.000 h after single oral dose) was 370 ng/mL, the concentration at 12 h ([2]; Sprague-Dawley, rat, plasma, po, 200 mg/kg, 12.00 h after single oral dose) was 154 ng/mL and the concentration at 24 h ([2]; Sprague-Dawley, rat, plasma, po, 200 mg/kg, 24.00 h after single oral dose, read-out: BAK concentration in rat plasma, mean) was 68.1 ng/mL. For the same molecule, the concentration at 24 h ([2]; Sprague-Dawley, rat, plasma, po, 200 mg/kg, 24.00 h after single oral dose, read-out: BAK concentration in rat plasma, single rats 1-5) was 76.9 ng/mL, the concentration at 24 h ([2]; Sprague-Dawley, rat, plasma, po, 200 mg/kg, rat, 24 h after single oral dose, read-out: Exposure of BAK, Plasma, mean) was 68.1 ng/g and the concentration at 24 h ([2]; Sprague-Dawley, rat, plasma, po, 200 mg/kg, rat, 24 h after single oral dose, read-out: Exposure of BAK, Plasma, single rats) was 76.9 ng/g. The “Exposure of BAK, Plasma, single rats” value ([2]; rat, 24 h after single oral dose) was 0.0764 µg/g and 0.0590 µg/g and 0.0546 µg/g and 0.0737 µg/g, the “CL of BAK” value [2, 7] was 470 ± 132 mL/min/kg and the “V of BAK” value [2, 7] was 184.2 ± 58.6 L/kg. The “t1∕2 of BAK” value [2, 7] was 4.71 ± 1.56 h.
